Converted amounts (≈) assume the structure as drawn.
Molecular target: AChE (Homo sapiens, UniProt P22303)
Assay: not given
Format: biochemical
Details: 10^-3 M
Description: Inhibition potency of the test compounds against AChE was determined using Ellman’s method. Enzyme solutions were prepared in gelatin solution (1%, w/v), at the concentration of 2.5 units/mL. […] AChE solution (20 µL/well) and test solution (20 µL/well) were added to phosphate buffer solution (140 µL/well, pH 8.0 ± 0.1), and incubated at 25 °C for 5 min. […] The production of the yellow anion was recorded by multimode microplate reader for 10 min at 412 nm. As a control, an identical solution of the enzyme without the inhibitor was processed. The control and the inhibitor readings were corrected with blank-readings. All processes were assayed in four independent determinations.

Sequence of AChE (P22303 32-614): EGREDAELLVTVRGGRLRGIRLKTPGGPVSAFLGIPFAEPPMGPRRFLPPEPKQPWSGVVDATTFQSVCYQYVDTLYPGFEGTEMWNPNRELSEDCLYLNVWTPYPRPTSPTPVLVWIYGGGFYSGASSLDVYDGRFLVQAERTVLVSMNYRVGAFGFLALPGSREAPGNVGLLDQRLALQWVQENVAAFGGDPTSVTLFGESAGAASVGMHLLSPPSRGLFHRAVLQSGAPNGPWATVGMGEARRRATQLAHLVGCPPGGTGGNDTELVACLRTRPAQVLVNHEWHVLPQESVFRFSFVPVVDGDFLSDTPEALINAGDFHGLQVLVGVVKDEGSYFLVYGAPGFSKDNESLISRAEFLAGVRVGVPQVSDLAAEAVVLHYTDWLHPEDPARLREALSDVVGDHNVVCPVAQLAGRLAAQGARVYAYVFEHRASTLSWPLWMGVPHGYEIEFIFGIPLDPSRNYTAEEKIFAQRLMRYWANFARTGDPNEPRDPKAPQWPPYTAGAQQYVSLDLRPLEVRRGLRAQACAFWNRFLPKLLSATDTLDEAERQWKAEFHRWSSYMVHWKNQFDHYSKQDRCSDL

SMILES	AChE Inhibition (%)
COc1ccc(-c2nc3ccccc3n2CCN2CCOCC2)cc1 [Compound 2b, 2-(4-Methoxyphenyl)-1-[2-(morpholin-4-yl)ethyl]-1H-benzimidazole]	5.19
Clc1ccc(-c2nc3ccccc3n2CCN2CCOCC2)cc1 [Compound 2c, 2-(4-Chlorophenyl)-1-[2-(morpholin-4-yl)ethyl]-1H-benzimidazole]	5.48
CC(C)c1ccc(-c2nc3ccccc3n2CCN2CCOCC2)cc1 [Compound 2e, 2-(4-Isopropylphenyl)-1-[2-(morpholin-4-yl)ethyl]-1H-benzimidazole]	17.51
CCOc1ccc(-c2nc3ccccc3n2CCN2CCOCC2)cc1 [Compound 2j, 2-(4-Ethoxyphenyl)-1-[2-(morpholin-4-yl)ethyl]-1H-benzimidazole]	7.20
FC(F)(F)Oc1ccc(-c2nc3ccccc3n2CCN2CCOCC2)cc1 [Compound 2m, 2-(4-Trifluoromethoxyphenyl)-1-[2-(morpholin-4-yl)ethyl]-1H-benzimidazole]	32.90

Same assay, conditions: 10^-4 M

SMILES	AChE Inhibition (%)
COc1ccc(-c2nc3ccccc3n2CCN2CCOCC2)cc1 [Compound 2b, 2-(4-Methoxyphenyl)-1-[2-(morpholin-4-yl)ethyl]-1H-benzimidazole]	5.19
Clc1ccc(-c2nc3ccccc3n2CCN2CCOCC2)cc1 [Compound 2c, 2-(4-Chlorophenyl)-1-[2-(morpholin-4-yl)ethyl]-1H-benzimidazole]	5.48
CC(C)c1ccc(-c2nc3ccccc3n2CCN2CCOCC2)cc1 [Compound 2e, 2-(4-Isopropylphenyl)-1-[2-(morpholin-4-yl)ethyl]-1H-benzimidazole]	17.51
CCOc1ccc(-c2nc3ccccc3n2CCN2CCOCC2)cc1 [Compound 2j, 2-(4-Ethoxyphenyl)-1-[2-(morpholin-4-yl)ethyl]-1H-benzimidazole]	7.20
FC(F)(F)Oc1ccc(-c2nc3ccccc3n2CCN2CCOCC2)cc1 [Compound 2m, 2-(4-Trifluoromethoxyphenyl)-1-[2-(morpholin-4-yl)ethyl]-1H-benzimidazole]	32.90

Molecular target: T1, human recombinant MAO-B (Homo sapiens, UniProt P27338)
T1 sequence (P27338 1-520): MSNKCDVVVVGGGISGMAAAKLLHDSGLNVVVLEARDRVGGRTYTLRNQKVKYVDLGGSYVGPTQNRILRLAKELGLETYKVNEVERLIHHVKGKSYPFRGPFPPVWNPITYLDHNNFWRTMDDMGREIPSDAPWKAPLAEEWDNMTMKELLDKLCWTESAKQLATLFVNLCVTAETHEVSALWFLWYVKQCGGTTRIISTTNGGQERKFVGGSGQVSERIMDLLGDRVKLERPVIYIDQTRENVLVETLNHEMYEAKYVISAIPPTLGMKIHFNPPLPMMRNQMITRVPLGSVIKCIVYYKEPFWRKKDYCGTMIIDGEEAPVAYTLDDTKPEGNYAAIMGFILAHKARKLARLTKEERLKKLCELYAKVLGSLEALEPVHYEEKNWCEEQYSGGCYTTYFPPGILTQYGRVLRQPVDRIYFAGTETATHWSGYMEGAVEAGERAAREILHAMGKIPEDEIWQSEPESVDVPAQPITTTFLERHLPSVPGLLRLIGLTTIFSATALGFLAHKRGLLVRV
Assay: MAO inhibition assay (kynuramine, fluorimetric)
Format: biochemical
Details: 10^-3 M
Description: Enzyme activity assays were performed according to the procedure reported by Matsumoto et al. with slight modifications. In order to prevent the destructive effect of light on MAO enzymes, the assays were performed in 96-well black plates. Phosphate buffer solution (0.1 M, pH = 7.4) was used for preparation of stock solutions (5 mg/mL) of both human recombinant MAO-A and MAO-B enzymes. […] The addition of the test compound solution was followed by addition of either MAO-A or MAO-B enzyme (50 μL/well) solutions. After 10 min of incubation at 37 °C, kynuramine (50 μL/well) was added and enzyme-substrate reaction was initiated. The plate was incubated for 20 min at 37 °C and then reaction was terminated by addition of 2 N NaOH (75 μL/well). The fluorimetric reads from the top was performed at 310 nm excitation and 380 nm emission wavelengths.

SMILES	MAO-B Inhibition (%)
COc1ccc(-c2nc3ccccc3n2CCN2CCOCC2)cc1 [Compound 2b, 2-(4-Methoxyphenyl)-1-[2-(morpholin-4-yl)ethyl]-1H-benzimidazole]	32.44
Clc1ccc(-c2nc3ccccc3n2CCN2CCOCC2)cc1 [Compound 2c, 2-(4-Chlorophenyl)-1-[2-(morpholin-4-yl)ethyl]-1H-benzimidazole]	41.12
CC(C)c1ccc(-c2nc3ccccc3n2CCN2CCOCC2)cc1 [Compound 2e, 2-(4-Isopropylphenyl)-1-[2-(morpholin-4-yl)ethyl]-1H-benzimidazole]	35.47
CCOc1ccc(-c2nc3ccccc3n2CCN2CCOCC2)cc1 [Compound 2j, 2-(4-Ethoxyphenyl)-1-[2-(morpholin-4-yl)ethyl]-1H-benzimidazole]	41.73
FC(F)(F)Oc1ccc(-c2nc3ccccc3n2CCN2CCOCC2)cc1 [Compound 2m, 2-(4-Trifluoromethoxyphenyl)-1-[2-(morpholin-4-yl)ethyl]-1H-benzimidazole]	25.84

Same assay, conditions: 10^-4 M

SMILES	MAO-B Inhibition (%)
COc1ccc(-c2nc3ccccc3n2CCN2CCOCC2)cc1 [Compound 2b, 2-(4-Methoxyphenyl)-1-[2-(morpholin-4-yl)ethyl]-1H-benzimidazole]	31.75
Clc1ccc(-c2nc3ccccc3n2CCN2CCOCC2)cc1 [Compound 2c, 2-(4-Chlorophenyl)-1-[2-(morpholin-4-yl)ethyl]-1H-benzimidazole]	33.54
CC(C)c1ccc(-c2nc3ccccc3n2CCN2CCOCC2)cc1 [Compound 2e, 2-(4-Isopropylphenyl)-1-[2-(morpholin-4-yl)ethyl]-1H-benzimidazole]	26.65
CCOc1ccc(-c2nc3ccccc3n2CCN2CCOCC2)cc1 [Compound 2j, 2-(4-Ethoxyphenyl)-1-[2-(morpholin-4-yl)ethyl]-1H-benzimidazole]	32.44
FC(F)(F)Oc1ccc(-c2nc3ccccc3n2CCN2CCOCC2)cc1 [Compound 2m, 2-(4-Trifluoromethoxyphenyl)-1-[2-(morpholin-4-yl)ethyl]-1H-benzimidazole]	12.43

Tested on: NIH/3T3 mouse embryonic fibroblast cell line
Assay: MTT cytotoxicity assay
Format: cell-based
Details: NIH/3T3
Description: (§1) Cytotoxicity was tested using NIH/3T3 mouse embryonic fibroblast cell line (ATCC® CRL-1658™, London, UK). NIH/3T3 cells were incubated according to the supplier’s recommendations. NIH/3T3 cells were seeded as 1 × 10^4 cells into each well of 96-well plates. MTT assay was performed as previously described. The compounds were tested between 1 mM and 0.000316 mM concentrations (1.0, 0.316, 0.10, 0.0316, 0.01, 0.00316, 0.001, 0.000316 mM). The IC50 values were determined by plotting a dose-response curve of inhibition % versus tested concentrations of the compound [62].

SMILES	cytotoxicity in words
COc1ccc(-c2nc3ccccc3n2CCN2CCOCC2)cc1 [Compound 2b, 2-(4-Methoxyphenyl)-1-[2-(morpholin-4-yl)ethyl]-1H-benzimidazole]	non-cytotoxic
CCOc1ccc(-c2nc3ccccc3n2CCN2CCOCC2)cc1 [Compound 2j, 2-(4-Ethoxyphenyl)-1-[2-(morpholin-4-yl)ethyl]-1H-benzimidazole]	non-cytotoxic
FC(F)(F)Oc1ccc(-c2nc3ccccc3n2CCN2CCOCC2)cc1 [Compound 2m, 2-(4-Trifluoromethoxyphenyl)-1-[2-(morpholin-4-yl)ethyl]-1H-benzimidazole]	non-cytotoxic

Tested on: not listed separately
Assay: MTT cytotoxicity assay
Format: cell-based, mouse
Details: mouse, NIH/3T3 mouse embryonic fibroblast cells, read-out: Cytotoxicity NIH3T3 Cells IC50
Description: as §1

SMILES	IC50 [µM]
COc1ccc(-c2nc3ccccc3n2CCN2CCOCC2)cc1 [Compound 2b, 2-(4-Methoxyphenyl)-1-[2-(morpholin-4-yl)ethyl]-1H-benzimidazole]	316
CCOc1ccc(-c2nc3ccccc3n2CCN2CCOCC2)cc1 [Compound 2j, 2-(4-Ethoxyphenyl)-1-[2-(morpholin-4-yl)ethyl]-1H-benzimidazole]	316
FC(F)(F)Oc1ccc(-c2nc3ccccc3n2CCN2CCOCC2)cc1 [Compound 2m, 2-(4-Trifluoromethoxyphenyl)-1-[2-(morpholin-4-yl)ethyl]-1H-benzimidazole]	100

Tested on: Pseudomona aeuroginosa ATCC 27853
Assay: Antimicrobial broth microdilution (CLSI M07-A9)
Format: cell-based
Details: Pseudomona aeuroginosa ATCC 27853
Description: Microbiological studies were performed according to CLSI reference M07-A9 broth microdilution method for bacterial strains and EUCAST definitive method EDef 7.1 for Candida species. Synthesized compounds were tested for their in vitro growth inhibitory activity against Escherichia coli ATCC 35218, Escherichia coli ATCC 25922, Staphylococcus aureus, ATCC 25923, Pseudomona aeuroginosa ATCC 27853, Enterococcus faecalis ATCC29212, Klebsiella pneumoniae ATCC700603 Listeria monocytogenes ATCC7644, Candida albicans ATCC90028, Candida glabrata ATCC 90030, Candida krusei ATCC 6258, Candida parapsilosis ATCC 22019.
The cultures were obtained from Mueller-Hinton broth (Difco) for the bacterial strains and the yeasts were maintained in Roswell Park Memorial Institute (RPMI) medium, after an overnight incubation at 37 °C for both. The inocula of the test microorganisms were adjusted to match an equivalent turbidity of a 0.5 McFarland standard, which was determined using a spectrophotometer; the final inoculum size was determined to be 0.5–2.5 × 10^5 cfu/mL for antibacterial and antifungal assays. The tests were carried out for both mediums at pH = 7 and two-fold serial dilutions were applied. The last well on the microplates, which was containing only the inoculated broth, was kept as control, and the last well with no growth of microorganism was recorded to represent the minimum inhibitory concentration (MIC50) in μg/mL. For both of the antibacterial and antifungal assays, the test compounds and reference drugs were firstly dissolved in DMSO, and further dilutions were performed to the desired concentrations of 1000, 500, 250, 125, 62.5, 31.25, 15.6, 7.8, 3.9 and 1.95 μg/mL using Mueller–Hinton broth and RPMI medium. The completed plates were incubated for 24 h, and at the end of the incubation, resazurin (20 µg/mL) was added into each well to control the growth in the wells. Final plates including microorganism strains were incubated for 2 h. MIC50 values were determined using microplate reader at […] wavelengths; MIC50 readings were performed twice for entire compounds. Chloramphenicol and ketoconazole were used as reference drugs.

SMILES	fold lower MIC50 / greater activity than chloramphenicol [fold]
COc1ccc(-c2nc3ccccc3n2CCN2CCOCC2)cc1 [Compound 2b, 2-(4-Methoxyphenyl)-1-[2-(morpholin-4-yl)ethyl]-1H-benzimidazole]	16
Clc1ccc(-c2nc3ccccc3n2CCN2CCOCC2)cc1 [Compound 2c, 2-(4-Chlorophenyl)-1-[2-(morpholin-4-yl)ethyl]-1H-benzimidazole]	2
FC(F)(F)Oc1ccc(-c2nc3ccccc3n2CCN2CCOCC2)cc1 [Compound 2m, 2-(4-Trifluoromethoxyphenyl)-1-[2-(morpholin-4-yl)ethyl]-1H-benzimidazole]	2

Same assay, conditions: Pseudomona aeuroginosa [sic] ATCC 27853

SMILES	MIC50 [µg/mL]
COc1ccc(-c2nc3ccccc3n2CCN2CCOCC2)cc1 [Compound 2b, 2-(4-Methoxyphenyl)-1-[2-(morpholin-4-yl)ethyl]-1H-benzimidazole]	0.0156 (≈ 0.0462 µM)
Clc1ccc(-c2nc3ccccc3n2CCN2CCOCC2)cc1 [Compound 2c, 2-(4-Chlorophenyl)-1-[2-(morpholin-4-yl)ethyl]-1H-benzimidazole]	125 (≈ 366 µM)
CC(C)c1ccc(-c2nc3ccccc3n2CCN2CCOCC2)cc1 [Compound 2e, 2-(4-Isopropylphenyl)-1-[2-(morpholin-4-yl)ethyl]-1H-benzimidazole]	250 (≈ 715 µM)
FC(F)(F)Oc1ccc(-c2nc3ccccc3n2CCN2CCOCC2)cc1 [Compound 2m, 2-(4-Trifluoromethoxyphenyl)-1-[2-(morpholin-4-yl)ethyl]-1H-benzimidazole]	125 (≈ 319 µM)
